Experimental data taken from EP4417607A1, “HETEROCYCLIC COMPOUND AS SOS1 INHIBITOR AND USES THEREOF” (Nanjing Zaiming Pharmaceutical Co., Ltd., priority 2021, dated 2023).

Experiments:
H358 cells = assay: H358 cell proliferation inhibition (CellTiter-Glo luminescent cell viability assay); assay type: cell-based; details: 7 days
Protocol: The effect of the compounds of the present invention on H358 cell proliferation was assessed by CellTiter-Glo luminescent cell viability assay kit method.
H358 cells (ATCC, CRL-5807) were cultured in RPMI1640 (Hyclone, SH30256.01) complete medium containing 10% FBS (Gibco, 10100147) and 100 U/mL penicillin-streptomycin mixed solution (Gibco, 15140163). When the cells grew to 80-90%, the cells were digested, pipetted, and seeded in a 96-well plate (Corning, 4515) at 3000 cells/well (180 µL RPMI1640 complete medium), and then the 96-well plate was incubated overnight in an incubator at 37 °C with 5% CO2.
After incubation overnight, 20 µL of a diluted test compound was added to each well using a multi-channel pipette, and the 96-well plate was placed in an incubator at 37 °C with 5% CO2 for further culture. After 7 days, 100 µL of the supernatant was pipetted and discarded. 50 µL of CellTiter-Glo® 3D Cell Viability Assay liquid was added to each well. The plate was shaken at room temperature at 450 rpm for 30 min. After the cells were completely lysed, "Luminescence" on the microplate reader was selected for plate reading. In this experiment, the cell-free group (replaced with 1640 medium) was used as the 100% inhibition group, and the compound-free group in which the cell was added was used as the 0% inhibition group.
The inhibition percentage of H358 cell proliferation by the compounds of the present invention could be calculated by the following formula: [formula]
(§1) IC50 values of the compounds were calculated from 8 concentration points using XLfit (ID Business Solutions Ltd., UK) software by the following formula: Y = Bottom + (Top−Bottom)/(1+10^(∧)((logIC50−X)×slopefactor)) [formula]
Y is the inhibition percentage, X is the logarithmic value of the concentration of the test compound, Bottom is the minimum inhibition percentage, Top is the maximum inhibition percentage, and slope factor is the slope coefficient of the curve.

[1] = test system: p-ERK pathway in H358 cells; assay: p-ERK pathway inhibition in H358 cells (Advanced phospho-ERK (Thr202/Tyr204) cellular kit, HTRF); assay type: cell-based; details: Homo sapiens, NCI-H358, 1 h compound incubation
Protocol: The effect of the compounds of the present invention on H358 cell p-ERK pathway was assessed by Advanced phospho-ERK (Thr202/Tyr204) cellular kit method.
The experimental procedures were summarized as follows: H358 cells (ATCC, CRL-5807) were cultured in RPMI1640 (ThermoFisher, A1049101) complete medium containing 10% FBS (Gibco, 10100147) and 100 U/mL penicillin-streptomycin mixed solution (Gibco, 15140163). When the coverage of the cells in the culture vessel reached 80-90%, the cells were pipetted and seeded in a 96-well plate (Corning, 3599) at 50000 cells/well (90 µL RPMI1640 complete medium), and the plate was left to stand for 5 min, cultured in an incubator at 37 °C with 5% CO2 for 6 h, replaced with a serum-free RPMI1640, and starved overnight.
After incubation overnight, 10 µL of a diluted test compound was added to each well using a multi-channel pipette, and the 96-well plate was cultured in an incubator at 37 °C with 5% CO2 for 1 h. The supernatant was poured. The cells were washed once with PBS. 50 µL of a lysis buffer (Advanced phospho-ERK (Thr202/Tyr204) cellular kit, 64AERPEH) was added to each well. The plate was shaken at room temperature at 450 rpm for 1 h. After the cells were completely lysed, 16 µL of the supernatant was added to a 384-well plate (PE, 6007299), mixed energy donor Eu and energy acceptor D2 (D2/Eu = 1:1) were added, and the plate was incubated at room temperature for 4 h. HTRF on the microplate reader was selected for plate reading, Ratio = Signal 665 nm/Signal 620 nm × 10^4. In this experiment, the cell-free group (replaced with 1640 medium) was used as the 100% inhibition group, and the compound-free group in which the cell was added was used as the 0% inhibition group.
The inhibition percentage of H358 cell p-ERK pathway by the compounds of the present invention could be calculated by the following formula: [formula]
as §1
Y is the inhibition percentage, X is the logarithmic value of the concentration of the test compound, Bottom is the minimum inhibition percentage, Top is the maximum inhibition percentage, and slope factor is the slope coefficient of the curve. The default fitted curve was used to fit the slope of the S-shaped curve to determine the IC50 value. Table 2. Results of p-ERK inhibition test by the compounds of the present invention

Compound	IC50 (H358 cells; Homo sapiens, NCI-H358, 168 h) [µM]	IC50 [1] [µM]	IC50 (H358 cells) [µM]
Cc1nc(N[C@H](C)c2cccc(C(F)(F)C(C)(C)C#N)c2)c2cn(C3(CF)CC3)c(=O)cc2n1 [Example 6, (R)-3,3-difluoro-3-(3-(1-((6-(1-(fluoromethyl)cyclopropyl)-2-methyl-7-oxo-6,7-dihydropyrido[4,3-d]pyrimidin-4-yl)amino)ethyl)phenyl)-2,2-dimethylpropanenitrile]	0.08	0.112	
COc1c(=O)n(C2(CF)CC2)cc2c(N[C@H](C)c3cccc(C(C)(F)F)c3F)nc(C)nc12 [Example 11, (R)-4-((1-(3-(1,1-difluoroethyl)-2-fluorophenyl)ethyl)amino)-6-(1-(fluoromethyl)cyclopropyl)-8-methoxy-2-methylpyrido[4,3-d]pyrimidine-7(6H)-one]	0.0508	0.0882	
Cc1nc(N[C@H](C)c2cccc([N+](=O)[O-])c2C)c2cn(C3(CF)CC3)c(=O)cc2n1 [Example 13]	0.0541	0.131	
COc1c(=O)n(C2(CF)CCN(C(C)=O)C2)cc2c(N[C@H](C)c3cccc([N+](=O)[O-])c3C)nc(C)nc12 (stereo partly drawn) [Example 16, 6-(1-acetyl-3-(fluoromethyl)pyrrolidin-3-yl)-8-methoxy-2-methyl-4-(((R)-1-(2-methyl-3-nitrophenyl)ethyl)amino)pyrido[4,3-d]pyrimidine-7(6H)-one]	0.187	0.028	
COc1c(=O)n(C2(C)CCN(C(C)=S)C2)cc2c(N[C@H](C)c3cccc(C(F)F)c3F)nc(C)nc12 (stereo partly shown) [Example 19]	0.0696	0.0525	
Cc1nc(N[C@H](C)c2cccc(S(F)(F)(F)(F)F)c2)c2cn(N3CCOCC3)c(=O)c(-c3ccc(C#N)nc3)c2n1 [Example 22, (R)-5-(2-methyl-6-morpholinyl-7-oxo-4-((1-(3-(pentafluoro-λ^6-sulfanyl)phenyl)ethyl)amino)-6,7-dihydropyrido[4,3-d]pyrimidin-8-yl)pyridinecarbonitrile]	0.129	0.18	
COc1c(=O)n(N2CCOCC2)cc2c(N[C@H](C)c3cccc(S(F)(F)(F)(F)F)c3)nc(C)nc12 [Example 25]	0.0357	0.107	
COc1c(=O)n(C2(CF)CC2)cc2c(N[C@H](C)c3cccc([N+](=O)[O-])c3C)nc(C)nc12 [Example 29, (R)-6-(1-(fluoromethyl)cyclopropyl)-8-methoxy-2-methyl-4-((1-(2-methyl-3-nitrophenyl)ethyl)amino)pyrido[4,3-d]pyrimidine-7(6H)-one]	0.0787	0.071	
Cc1nc(N[C@H](C)c2cccc(C(F)F)c2F)c2cn(C3(CF)CC3)c(=O)c(OC(=O)N3CCN(C)CC3)c2n1 [Example 86, (R)-4-((1-(3-(difluoromethyl)-2-fluorophenyl)ethyl)amino)-6-(1-(fluoromethyl)cyclopropyl)-2-methyl-7-oxo-6,7-dihydropyrido[4,3-d]pyrimidin-8-yl-4-methylpiperazine-1-carboxylate]	0.121		
(R)-4-((1-(3-(difluoromethyl)-2-fluorophenyl)ethyl)amino)-8-ethoxy-6-(1-(fluoromethyl)cyclopropyl)-2-methylpyrido[4,3-d]pyrimidine-7(6H)-one [Example 10]			0.0416

The remaining lines, values ahead:

IC50 (H358 cells; Homo sapiens, NCI-H358, 168 h) [µM]	IC50 [1] [µM]	IC50 (H358 cells) [µM]	Compound
0.0118	0.0663		Cc1nc(N[C@H](C)c2cccc(C(F)F)c2F)c2cn(C3(CF)CC3)c(=O)c(N3CCN4CCC[C@@H]4C3)c2n1 (stereo in doubt) [Example 97, 4-(((R)-1-(3-(difluoromethyl)-2-fluorophenyl)ethyl)amino)-6-(1-(fluoromethyl)cyclopropyl)-8-((R)-hexahydropyrrolo[1,2-a]pyrazin-2(1H)-yl)-2-methylpyrido[4,3-d]pyrimidine-7(6H)-one]
0.0336	0.0295		[2H]C([2H])([2H])Oc1c(=O)n(C2(CF)CC2)cc2c(N[C@H](C)c3cccc([N+](=O)[O-])c3C)nc(C)nc12 [Example 30, (R)-6-(1-(fluoromethyl)cyclopropyl)-8-(methoxy-d3)-2-methyl-4-((1-(2-methyl-3-nitrophenyl)ethyl)amino)pyrido[4,3-d]pyrimidine-7(6H)-one]
0.133	0.073		[2H]C([2H])([2H])Oc1c(=O)n(C2(CF)CC2)cc2c(N[C@H](C)c3cccc(S(F)(F)(F)(F)F)c3)nc(C)nc12 [Example 31, (R)-6-(1-(fluoromethyl)cyclopropyl)-8-(methoxy-d3)-2-methyl-4-((1-(3-(pentafluoro-λ^6-sulfanyl)phenyl)ethyl)amino)pyrido[4,3-d]pyrimidine-7(6H)-one]
0.135	0.0489		COc1c(=O)n(C2(CC#N)CC2)cc2c(N[C@H](C)c3cccc(C(F)F)c3F)nc(C)nc12 [Example 32, (R)-2-(1-(4-((1-(3-(difluoromethyl)-2-fluorophenyl)ethyl)amino)-8-methoxy-2-methyl-7-oxopyrido[4,3-d]pyrimidine-6(7H)-yl)cyclopropyl)acetonitrile]
0.0648	0.0691		Cc1nc(N[C@H](C)c2cccc(C(F)F)c2F)c2cn(C3(CF)CC3)c(=O)c(OC(C)C)c2n1 [Example 36, (R)-4-((1-(3-(difluoromethyl)-2-fluorophenyl)ethyl)amino)-6-(1-(fluoromethyl)cyclopropyl)-8-isopropoxy-2-methylpyrido[4,3-d]pyrimidine-7(6H)-one]
0.0847			Cc1nc(N[C@H](C)c2cccc(C#N)c2C)c2cn(C3(CF)CC3)c(=O)c(N3CCN(C)CC3)c2n1 [Example 74, (R)-3-(1-((6-(1-(fluoromethyl)cyclopropyl)-2-methyl-8-(4-methylpiperazin-1-yl)-7-oxo-6,7-dihydropyrido[4,3-d]pyrimidin-4-yl)amino)ethyl)-2-methylbenzonitrile]
0.134			Cc1nc(N[C@H](C)c2cccc(C#N)c2C)c2cn(N3CCOCC3)c(=O)c(-c3ccc(N4CCCC4)nc3)c2n1 [Example 89, (R)-2-methyl-3-(1-((2-methyl-6-morpholinyl-7-oxo-8-(6-(pyrrolidin-1-yl)pyridin-3-yl)-6,7-dihydropyrido[4,3-d]pyrimidin-4-yl)amino)ethyl)benzonitrile]
0.136			Cc1nc(N[C@H](C)c2cccc(C(F)F)c2F)c2cn(N3CCOCC3)c(=O)c(Oc3ccnc(C#N)c3)c2n1 [Example 118, (R)-4-((4-((1-(3-(difluoromethyl)-2-fluorophenyl)ethyl)amino)-2-methyl-6-morpholino-7-oxo-6,7-dihydropyrido[4,3-d]pyrimidin-8-yl)oxy)pyridinecarbonitrile]
0.0699			Cc1nc(N[C@H](C)c2cccc(C(F)F)c2F)c2cn(C3(CF)CC3)c(=O)c(N3CCN(C4COC4)CC34CC4)c2n1 [Example 146, (R)-4-((1-(3-(difluoromethyl)-2-fluorophenyl)ethyl)amino)-6-(1-(fluoromethyl)cyclopropyl)-2-methyl-8-(7-(oxetan-3-yl)-4,7-diazaspiro [2.5]octan-4-yl)pyrido [4,3-d]pyrimidine-7(6H)-one]
0.117			Cc1nc(N[C@H](C)c2cccc(C(F)F)c2F)c2cn(C3(CF)CC3)c(=O)c(N3CCC4(COC4)C3)c2n1 [Example 154]
0.0848			Cc1nc(N[C@H](C)c2cccc(C(F)F)c2F)c2cn(C3(CF)CC3)c(=O)c(NC(=O)c3ccccn3)c2n1 [Example 157]
